# In paper PMC11507441, “Oilseed Cakes: A Promising Source of Antioxidant, and Anti-Inflammatory Agents—Insights from Lactuca sativa” (International Journal of Molecular Sciences, 2024):
# Columns and labels:
# [1] = system: S. aureus; test: Antimicrobial screening, zone of inhibition; format: cell-based; details: Table 1
# Description: The procedure was performed according to […] et al.. A comparison of the extract's zone of inhibition to that of a reference antibiotic's activity index was determined using the following equation:Activity index = (the inhibition zone of extract/the inhibition zone of the standard) × 100
# [2] = system: P. aeruginosa; test: Antimicrobial screening, zone of inhibition; format: cell-based; details: Table 1
# Description: The procedure was performed according to Stylianakis et al.. A comparison of the extract’s zone of inhibition to that of a reference antibiotic’s activity index was determined using the following equation:Activity index = (the inhibition zone of extract/the inhibition zone of the standard) × 100
# [3] = Cytotoxic activity (MTT assay), normal cells; format: cell-based; details: human, WI-38 normal lung fibroblast cells; MTT; normal cells; read-out: In Vitro Cytotoxicity IC50 (µg/mL) WI-38
# Description: The HPLC was performed in the Institute for Plant Biology, TU Braunschweig, using a Young Lin quaternary pump, vacuum degasser, column oven (40 °C), diode array detector (YL9160 PDA), and a Midas Spark Holland autosampler. UV spectra (λ max) were measured in the central laboratory of the Faculty of Pharmaceutical Science at Mansoura University using spectroscopic methanol with an ultraviolet-visible spectrophotometer (Shimadzu 1601 PC, version TCC-240A, Kyoto, Japan). The NMR unit of Mansoura University’s Faculty of Pharmacy obtained nuclear magnetic resonance spectra (^1H-NMR, ^13C-NMR, DEPT-Q, APT, HSQC, and HMBC) using a Bruker DRX 600 NMR spectrometer (600 and 150 MHz for ^1H and ^13C-NMR, respectively) and with the Bruker Corporation Avance III 400 spectrometer, which measures ^1H and ^13C-NMR at 400 and 100 MHz, respectively. The types of solvents that are used are CDCl3, CD3OD, and DMSO-d6. For normal phase chromatography, silica gel G 60–230 mesh (Merck, Darmstadt, Germany) was packed using a wet or dry method in the specified solvent. The purchase of Normal Human lung fibroblast (WI-38), hepatic cancer cell lines (HePG-2), and mammary gland (MCF-7) cell lines from ATCC was made possible by the Holding firm for biological goods and vaccines (VACSERA), which is based in Cairo, Egypt.
# Using the MTT test, the inhibitory effects of substances on cell growth were ascertained using the cell lines compared to normal lung fibroblast cells (WI-38). The selectivity index was calculated via the Selectivity index (SI) equation: SI equals IC50 normal/IC50 cancer.
# [4] = system: TNF-α; test: TNF-α in rat paw tissue homogenate (carrageenan model); format: in vivo; details: doses of 20 and 40 mg/kg; compared to the vehicle control group
# Description: (§1) The levels of inflammatory mediators (IL-1β, TNF-α, and PGE2) in rat paw tissue homogenate were measured using the following Kits: Rat TNF-α (Tumor Necrosis Factor Alpha) ELISA Kit from Elabscience® Company, Houston, TX, USA, Interleukin 1 Beta (IL-1b) Organism Species: Rattus norvegicus (Rat) from Cloud Clone Crop Company and Rat PGE2 (Prostaglandin E2) ELISA Kit from Fine test® company Hubei, China. In addition, oxidative stress parameters in rat paw tissue homogenate were measured using superoxide dismutase, glutathione peroxidase, and catalase Kits from the Biodiagnostic company, Birmingham, UK.
# (§2) Rats were slaughtered, and their paw tissues were gathered and weighed five hours after the carrageenan was administered. The tissues underwent processing after being fixed in 10% formalin. Rat paw tissue was homogenized, and its oxidative stress indices (SOD, CAT, and GPx) as well as the levels of inflammatory mediators (IL-1β, TNF-α, and PGE2) were measured.
# [5] = system: CAT; test: CAT activity in rat paw tissue homogenate (carrageenan model); format: in vivo; details: for CAT (U/gm Tissue): paw tissue 5 h after carrageenan
# Description: as §1, §2
# [6] = 1 mg/mL, relative to ciprofloxacin
smiles,measurement,setting,value
"NC(CO)C(O)c1ccc2c(c1)OCO2 (stereo not drawn) [Compound 1, 1,3-propanediol-2-amino-1-(3′,4′-methylenedioxyphenyl)]",zone of inhibition at 1000 µg/mL,"[1]; Staphylococcus aureus, isolated compounds 1 mg/mL, read-out: S. aureus Diameter of Inhibition Zone (mm)",6.9 ± 0.1 mm
same,S. aureus %Activity Index,[1]; [6],28.9%
same,zone of inhibition at 1000 µg/mL,"[2]; Pseudomonas aeruginosa, isolated compounds 1 mg/mL, read-out: P. aeruginosa Diameter of Inhibition Zone (mm)",3.8 ± 0.2 mm
same,P. aeruginosa %Activity Index,[2]; [6],16.5%
same,IC50,[3],61.7 ± 3.4 µg/mL
same,TNF-α level in paw tissue,[4],significant reduction
same,CAT activity restored,"[5]; 40 mg/kg, compared to the control group",72.08%
same,CAT (U/gm Tissue),[5]; 20 mg/kg,1.50 ± 0.19 U/gm Tissue
same,CAT (U/gm Tissue),[5]; 40 mg/kg,2.04 ± 0.26 U/gm Tissue
